According to the supplement of paper PMC10307832:

Experiments:
Experiment in all cases: relative viability (nuclei count vs DMSO), 5 days (fraction); higher = more cells survive
[1] = compound: CC[C@H](CO)Nc1nc(NCc2ccccc2)c2ncn(C(C)C)c2n1 [Seliciclib] + Nc1nc2[nH]cc(CCc3ccc(C(=O)N[C@@H](CCC(=O)O)C(=O)O)cc3)c2c(=O)[nH]1 [Pemetrexed] (partner 0.2 µM)
Outline: (§1)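 Cells from lung cancer lines were seeded into 1536-well plates and, one day later, dosed by pin tool. Treatments were either a single drug or a fixed dose of an anchor drug with five library-drug doses (not always all listed) in √10 steps. After 5 days, nuclei were stained in a one-step fixation (final 0.05% Triton X-100, 1% formaldehyde, 1 ug/ml Hoechst) and counted on 4× images, and relative viability is the treated-to-vehicle nuclei ratio, as the median of duplicate plates.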

[2] = compound: CC[C@H](CO)Nc1nc(NCc2ccccc2)c2ncn(C(C)C)c2n1 [Seliciclib] + CC1(C)CCC(c2ccc(Cl)cc2)=C(CN2CCN(c3ccc(C(=O)NS(=O)(=O)c4ccc(N[C@H](CCN5CCOCC5)CSc5ccccc5)c(S(=O)(=O)C(F)(F)F)c4)cc3)CC2)C1 [Navitoclax] (partner 0.5 µM)
Outline: as §1

[3] = compound: CC[C@H](CO)Nc1nc(NCc2ccccc2)c2ncn(C(C)C)c2n1 [Seliciclib] + O=C(CCCCCCC(=O)Nc1ccccc1)NO [Vorinostat] (partner 1 µM)
Outline: as §1

[4] = compound: CC[C@H](CO)Nc1nc(NCc2ccccc2)c2ncn(C(C)C)c2n1 [Seliciclib] + C[C@]1(O)C[C@@H](c2nc(-c3ccc4ccc(-c5ccccc5)nc4c3)c3c(N)nccn32)C1 [Linsitinib] (partner 1 µM)
Outline: as §1

Row | Cell Line | relative viability ([1]; first compound 0.08 µM) | relative viability ([1]; first compound 0.253 µM) | relative viability ([1]; first compound 0.8 µM) | relative viability ([1]; first compound 2.53 µM) | relative viability ([1]; first compound 8 µM) | relative viability ([2]; first compound 0.08 µM) | relative viability ([2]; first compound 0.253 µM) | relative viability ([2]; first compound 0.8 µM) | relative viability ([2]; first compound 2.53 µM) | relative viability ([2]; first compound 8 µM) | relative viability ([3]; first compound 0.08 µM) | relative viability ([3]; first compound 0.253 µM) | relative viability ([3]; first compound 0.8 µM) | relative viability ([3]; first compound 2.53 µM) | relative viability ([3]; first compound 8 µM) | relative viability ([4]; first compound 0.08 µM) | relative viability ([4]; first compound 0.253 µM) | relative viability ([4]; first compound 0.8 µM) | relative viability ([4]; first compound 2.53 µM) | relative viability ([4]; first compound 8 µM)
1 | RERF-LC-KJ | 0.474 | 0.54 | 0.488 | 0.471 | 0.441 | 0.759 | 0.673 | 0.812 | 0.804 | 0.651 | 0.698 | 0.641 | 0.661 | 0.55 | 0.439 | 0.869 | 0.814 | 0.855 | 0.909 | 0.883
2 | SK-LU-1 | 0.992 | 1.08 | 1.04 | 0.952 | 0.597 | 0.866 | 0.973 | 0.575 | 0.978 | 0.627 | 0.701 | 0.879 | 0.877 | 0.753 | 0.477 | 0.973 | 0.868 | 1.32 | 1.09 | 0.687
3 | SK-MES-1 | 1 | 1.17 | 0.932 | 0.862 | 0.708 | 1.24 | 1.34 | 1.11 | 1.04 | 0.715 | 1.03 | 1.13 | 1.11 | 1.02 | 1.01 | 1.02 | 0.995 | 1.04 | 1.05 | 0.981
4 | SW 1573 | 0.875 | 0.723 | 0.886 | 0.791 | 0.731 | 1.09 | 0.732 | 0.901 | 0.86 | 0.655 | 0.943 | 0.687 | 0.708 | 0.632 | 0.346 | 0.768 | 0.792 | 0.904 | 0.743 | 0.668
5 | UMC-11 | 0.741 | 0.753 | 0.789 | 0.78 | 0.594 | 0.316 | 0.279 | 0.313 | 0.29 | 0.25 | 0.432 | 0.336 | 0.353 | 0.281 | 0.194 | 1.02 | 0.872 | 1.01 | 1.04 | 0.851
